Source: PubChem BioAssay AID1996
Values after ≈ are worked out from the molar mass of the structure shown.

Conditions: buffer; pH 7.4; 200.0 µM

Row | Structure (SMILES) | solubility kinetic [µg/mL]
1 | C=CCOc1ccc2c(c1)c(=O)cc(C(=O)O)n2CC | 39.7 (≈ 145 µM)
2 | COCCn1c(=S)[nH]c2sc3c(c2c1=O)CCCC3 | > 44.5
3 | COCCNC(=S)N1CCN(c2nc3ccccc3s2)CC1 | 35.3 (≈ 105 µM)
4 | Cc1ccc2nc(Nc3ccccc3)c(C=O)c(=O)n2c1 | 1.5 (≈ 5.37 µM)
5 | CC(C)N1C(=O)C(O)(C2COC(C)(C)CC2=O)c2ccccc21 (centres undefined) | > 47.6
6 | COc1cc(OC)nc(NC(=O)NS(=O)(=O)c2ccccc2Cl)n1 | 45 (≈ 121 µM)
7 | COc1cccc(OCC(O)CNC(C)c2ccccc2)c1.Cl (centres undefined) | 49.1
8 | Cc1ccccc1CC(=O)N1CCN(C(=O)C2CCCO2)CC1 (centres undefined) | > 47.5
9 | Cn1cnc2c(N/N=C/c3cccs3)ncnc21 | > 38.7
10 | CC(=O)c1cccc(Nc2nc(-c3sc(N)nc3C)cs2)c1 | 4.5 (≈ 13.6 µM)
11 | COc1ccccc1N1CC(C(=O)NC2CCCCCC2)CC1=O (centres undefined) | > 49.6
12 | C=CCOc1ccc(CNc2ccc3[nH]c(=O)[nH]c3c2)cc1OC | 2.7 (≈ 8.3 µM)
13 | Cc1cccc(C(=O)N[C@H](C(=O)NCc2cccs2)C(C)C)c1 | 7.5 (≈ 22.7 µM)
14 | C[C@@H]1NC(=O)/C(=C\c2ccccc2Cl)NC1=O | 12.8 (≈ 51.1 µM)
15 | Cc1ccc(S(=O)(=O)NCCNc2ccc([N+](=O)[O-])cc2)cc1 | 32.8 (≈ 97.8 µM)
16 | Cc1ccc(C(=O)NC(C)C2CC3CCC2C3)c(C)c1 (centres undefined) | 29.9 (≈ 110 µM)
17 | O=C(CCN1C(=O)C2C3C=CC(C3)C2C1=O)N1CCCCC1 (centres undefined) | > 45.4
18 | O=c1c2ccccc2nc2n1CCS2(=O)=O | 34.6 (≈ 146 µM)
19 | CCOc1ccc(N2CC(C(=O)Nc3ccncc3)CC2=O)cc1 (centres undefined) | > 48.8
20 | CN(C)c1cc[n+](CC(=O)c2cccs2)cc1.[Cl-] | 41.7
21 | COc1cccc(-n2cnc3sc(C)cc3c2=O)c1 | 40.3 (≈ 148 µM)
22 | Cc1nc(CNS(=O)(=O)c2cc([N+](=O)[O-])ccc2C)cs1 | 10.3 (≈ 31.5 µM)
23 | C=CCOc1ccc(C2NC(=S)NC3=C2CCc2ccccc23)cc1 (centres undefined) | 11.2 (≈ 32.1 µM)
24 | O=C(COc1ccc(F)c(Cl)c1)Nc1ccc(N2CCOCC2)cc1 | 5.4 (≈ 14.8 µM)

Row | Structure (SMILES) | solubility kinetic [µg/mL]
25 | O=C(Nc1ccccn1)c1ccc(C(=O)Nc2ccccn2)cc1 | 0.5 (≈ 1.57 µM)
26 | Cc1ccc2nc(SCC(=O)Nc3ccc(C(N)=O)cc3)[nH]c2c1 | 9.9 (≈ 29.1 µM)
27 | O=C(CSc1nccc(=O)[nH]1)NCc1ccc2c(c1)OCO2 | > 47.9
28 | CC(=O)CC(=O)C1C(=O)N(C)C(=O)N(C)C1=O | > 36
29 | CC(C)CNC(=O)c1cc(-c2ccc3c(c2)OCO3)on1 | 0.5 (≈ 1.73 µM)
30 | Cc1cccc(NC(=O)C2CC(=O)N(Cc3ccccc3)C2)n1 (centres undefined) | > 46.4
31 | O=C(Cn1ccc([N+](=O)[O-])n1)NCCc1c[nH]c2ccccc12 | > 47
32 | CC1(C2CC2)NC(=O)N(CC(=O)Nc2ccc(F)cc2F)C1=O (centres undefined) | > 48.5
33 | O=C(NC1CCCCC1)C1CCN(c2ncccn2)CC1 | > 43.3
34 | CC(=O)c1ccc(NC(=O)Nc2cccc3ccccc23)cc1 | 0.4 (≈ 1.31 µM)
35 | COc1ccc(COC(=O)CCc2c[nH]c3ccccc23)cc1F | 7.7 (≈ 23.5 µM)
36 | NC(=O)c1ccccc1OCC(=O)N1CCCc2ccccc21 | > 46.6
37 | Cc1ccc2nc(-c3ccc4c(c3)NC(=O)CO4)cn2c1 | 3.2 (≈ 11.5 µM)
38 | Cc1nc(NC(=O)COC(=O)CNC(=O)c2ccco2)c(Cl)cc1Cl | > 57.9
39 | Cc1ccc(N2C(=O)C3CCCN3C2=S)cc1 (centres undefined) | 34.2 (≈ 139 µM)
40 | O=C(NCc1cccc(C(F)(F)F)c1)N1CCN(C(=O)c2ccccc2)CC1 | > 58.7
41 | CCOc1ccccc1Nc1nnc(SCC(=O)NC2CC2)s1 | > 52.6
42 | CCCCNC(=S)N1CCN(c2ccc(C(C)=O)cc2)CC1 | 8 (≈ 25 µM)
43 | COc1ccc(N2C(=O)CSC2c2ccccc2[N+](=O)[O-])cc1 (centres undefined) | 47.7 (≈ 144 µM)
44 | CN1CCCN(C(=O)c2ccc(Cl)cc2)CC1 | 32.9 (≈ 130 µM)
45 | COc1ccc(C(=O)COC(=O)[C@@H](NS(=O)(=O)c2ccccc2)C(C)C)cc1 | 7.8 (≈ 19.2 µM)
46 | CCCOc1ccc(CNC(=S)Nc2ccccc2)cc1Cl | 1.9 (≈ 5.67 µM)
47 | COc1cc(C)c(S(=O)(=O)NCc2cccnc2)cc1C | > 46
48 | CCC(=O)OCC(=O)Nc1cc(S(=O)(=O)N(C)C)ccc1Cl | 46 (≈ 132 µM)

Row | Structure (SMILES) | solubility kinetic [µg/mL]
49 | CCN(CC)C(=O)Cc1ccccc1 | > 28.7
50 | O=C(c1ccc(-c2ccccc2)cc1)N1CCN(c2ccccc2F)CC1 | 1.8 (≈ 4.99 µM)
51 | O=C(CCCOc1ccc(Cl)cc1Cl)Nc1ncccn1 | 7.7 (≈ 23.6 µM)
52 | COc1ccccc1C(=O)NC(=O)COC(=O)C1CC1C (centres undefined) | > 43.7
53 | O=C(COC(=O)COc1ccccc1)NCc1ccc2c(c1)OCO2 | > 51.5
54 | CCN1CCn2c3c(c4cccc(C)c42)CCCC31.Cl (centres undefined) | 33.6
55 | Cc1cc(-c2nc(-c3ccncc3)no2)ccc1[N+](=O)[O-] | 1.8 (≈ 6.38 µM)
56 | N#CC1=C(N)Oc2c(c(=O)sc3ccccc23)C1c1ccncc1 (centres undefined) | 3.6 (≈ 10.8 µM)
57 | COc1ccc2c(c1O)C13CCN(C)C(C2)C1CCC(=O)C3 (centres undefined) | > 45.2
58 | O=C1COc2ccc(N3C(=O)c4ccccc4C3=O)cc2N1 | 1.9 (≈ 6.46 µM)
59 | Cc1ccc(NC(=O)CN(C)CCOc2ccccc2)c([N+](=O)[O-])c1 | < 0.2
60 | Cc1cc(OC(=O)c2ccc(F)cc2)c([N+](=O)[O-])c(=O)[nH]1 | 43.2 (≈ 148 µM)
61 | COc1cc(C(=O)Nc2cc(C)ccc2C)ccc1OCc1c(C)noc1C | 7.1 (≈ 18.7 µM)
62 | COc1ccc(-c2csc3nc(-c4ccccc4F)oc(=O)c23)cc1 | < 0.8
63 | CCn1c2ccccc2c2cc(NC(=O)c3cc(C)on3)ccc21 | 2.3 (≈ 7.2 µM)
64 | COc1ccc(/C=C(\C)c2nc(C)c(-c3ccccc3)c(=O)[nH]2)cc1 | 1.4 (≈ 4.21 µM)
65 | CC(C)Oc1ccc(C(=O)CCN2CCOCC2)cc1 | 32.8 (≈ 118 µM)
66 | COc1ccc(-c2cccc(C(=O)N3CCOCC3)c2)cc1 | 40 (≈ 135 µM)
67 | O=C(COC(=O)/C=C/c1ccccc1Cl)NCc1ccco1 | 14.4 (≈ 45 µM)
68 | CNS(=O)(=O)c1cc(Cl)ccc1Sc1ccccc1C(=O)O | > 53.7
69 | COc1ccccc1OCCn1cc(C=O)c2ccccc21 | 7.8 (≈ 26.4 µM)
70 | COC(=O)c1ccc(COc2ccc(/C=N/O)cc2)o1 | > 41.3
71 | O=C(CNC(=O)c1ccccc1F)NCCc1ccc(Cl)cc1 | 47.5 (≈ 142 µM)
72 | Cc1ccc2cc(NC(=O)c3ccccc3)ccc2n1 | > 39.3

Row | Structure (SMILES) | solubility kinetic [µg/mL]
73 | N#CC1=C(S)N(c2ccccc2)C(c2ccco2)NC1=O (centres undefined) | 37 (≈ 124 µM)
74 | O=C(Nc1ccc2oc(=O)ccc2c1)c1ccc2ccccc2c1 | < 0.7
75 | CCCCc1nnc(SCC(=O)Nc2nccs2)n1C | > 46.7
76 | CCN(CC(=O)NCc1ccc(Cl)cc1)C(=O)/C=C/c1ccccc1 | 2.8 (≈ 7.85 µM)
77 | COc1ccc(C)cc1NC(=O)NC1CCCc2ccccc21 (centres undefined) | < 0.3
78 | CC(=O)Nc1ccc(-c2csc(NCc3ccccc3)n2)cc1 | 33.9 (≈ 105 µM)
79 | COc1cccc(CC(=O)Nc2nc3ccccc3[nH]2)c1 | 2.2 (≈ 7.82 µM)
80 | CC(NC(=O)c1cc(Br)ccc1Cl)c1ccccc1 (centres undefined) | 3.8 (≈ 11.2 µM)
81 | O=C(COC(=O)c1cccs1)NCCCc1ccccc1 | 20.1 (≈ 66.3 µM)
82 | Cc1cc(-c2ccccc2)n2ncnc2n1 | > 31.5
83 | O=C(c1c(F)cccc1Cl)N1CCN(c2ccccn2)CC1 | > 48
84 | Oc1ccc(-c2csc(Nc3ccccn3)n2)cc1 | 5.3 (≈ 19.7 µM)
85 | CCN(CC)CCNC(=O)c1ccc(NC(=O)Cc2ccsc2)cc1 | 49.4 (≈ 137 µM)
86 | O=S(=O)(NCc1ccco1)c1ccc2ccccc2c1 | 11.3 (≈ 39.3 µM)
87 | COc1ccc(-c2csc(Nc3cc(C)ccn3)n2)cc1C | < 0.2
88 | CCn1c(CCl)nc2cc(S(=O)(=O)N3CCOCC3)ccc21 | 12.9 (≈ 37.5 µM)
89 | Cc1cc(C)cc(NC(=O)C[n+]2ccccc2)c1.[Cl-] | > 41.5
90 | CCCNC(=S)Nc1cc2oc3ccccc3c2cc1OC | 0.4 (≈ 1.27 µM)
91 | CCCCCCCCCCOC(=O)NC1CCS(=O)(=O)C1 (centres undefined) | 1.1 (≈ 3.44 µM)
92 | Cn1cccc1C(=O)NCC1CCCCC1 | 28 (≈ 127 µM)
93 | Cc1ccc(C)c(NS(=O)(=O)c2ccccc2C)c1 | 38.8 (≈ 141 µM)
94 | CC(NC(=O)CCNC(=O)c1ccc(C(C)(C)C)cc1)c1ccccc1 (centres undefined) | 17.1 (≈ 48.5 µM)
95 | CCSc1nsc(NC(=O)Nc2cccc(OC)c2)n1 | 1.7 (≈ 5.48 µM)
96 | COc1ccc(C(=O)OCc2cc(=O)n3ccsc3n2)cc1F | 4 (≈ 12 µM)

Row | Structure (SMILES) | solubility kinetic [µg/mL]
97 | CCN(c1ccc(NC(=O)COC(=O)/C=C/c2ccco2)cc1)C(C)C | 24.5 (≈ 68.7 µM)
98 | Cn1cccc1C(=O)/C(C#N)=C/c1ccc(F)cc1 | 36.3 (≈ 143 µM)
99 | O=C(NCCCNC(=O)c1cc(Cl)ccc1Cl)c1ccco1 | 44.3 (≈ 130 µM)
100 | C=Cn1cc[n+](CC(=O)c2ccc(Br)cc2)c1.[Br-] | > 55.8
101 | CCCn1c2ccccc2c2cnn(CC(=O)NCCOC)c(=O)c21 | > 51.4
102 | CCC1(c2ccccc2)NC(=O)N(CC(=O)N2CCc3ccccc32)C1=O (centres undefined) | 6.8 (≈ 18.7 µM)
103 | N/C(=N\O)c1ccc(Cl)cc1Cl | 30 (≈ 146 µM)
104 | C=C(C)c1cccc(C(C)(C)NC(=O)NCc2ccncc2)c1 | > 46.4
105 | CCOc1ccc(C(=O)NCc2ccc3c(c2)OCO3)cc1 | 11.3 (≈ 37.8 µM)
106 | COc1ccccc1NC(=O)c1ccccc1NC(=O)c1ccccc1C(=O)O | > 58.6
107 | Cc1ccccc1C(=O)NC1CCCCCCC1 | 30.2 (≈ 123 µM)
108 | Brc1cccc(CN2CCN(c3ncccn3)CC2)c1 | 25.2 (≈ 75.6 µM)
109 | CN(C)CC/C=C1/c2cc(F)ccc2Sc2ccc(Cl)cc21.Cl | 32.8
110 | COc1cc(OC)c(N(C)S(=O)(=O)c2cccc(C(=O)OCC(=O)N3CCOCC3)c2)cc1Cl | 56.6 (≈ 110 µM)
111 | O=S(=O)(c1ccccc1)c1nc(-c2ccccc2)oc1N1CCOCC1 | 1.2 (≈ 3.24 µM)
112 | O=C(CN1CCCC1)Nc1ccc([N+](=O)[O-])cc1 | > 37.4
113 | COc1ccc2[nH]cc(C(=O)CN3CCCC(C)(C)C3)c2c1 | > 45.1
114 | CCCCc1nc2cc(C(=O)N3CCC[C@H]3CO)ccc2o1 | > 45.4
115 | COc1ccc2nc(SCC(=O)NC3CC3)c(C#N)cc2c1 | 0.8 (≈ 2.55 µM)
116 | CN(C)c1ccc(/C=N/NC(=O)CNC(=O)c2ccncc2)cc1 | > 48.8
117 | O=C1/C(=C\c2ccsc2)NC(=S)N1c1ccccc1 | 4.5 (≈ 15.7 µM)
118 | CCOC(=O)c1cc(=O)[nH]c2ccccc12 | 30.6 (≈ 141 µM)
119 | Cc1cccc(C(=O)OCC(=O)N2CC(C)OC(C)C2)c1C (centres undefined) | > 45.8
